pIC50: −log10 of the molar value. No end group written: not given here.
Legend:
[1] = target: T1, rat PTH-1 receptors (Rattus norvegicus, UniProt P25961); assay: AC activation (cAMP) in EW5 cells; type: cell-based
T1 construct: expressed in transfected cells
T1 sequence (P25961 27-591): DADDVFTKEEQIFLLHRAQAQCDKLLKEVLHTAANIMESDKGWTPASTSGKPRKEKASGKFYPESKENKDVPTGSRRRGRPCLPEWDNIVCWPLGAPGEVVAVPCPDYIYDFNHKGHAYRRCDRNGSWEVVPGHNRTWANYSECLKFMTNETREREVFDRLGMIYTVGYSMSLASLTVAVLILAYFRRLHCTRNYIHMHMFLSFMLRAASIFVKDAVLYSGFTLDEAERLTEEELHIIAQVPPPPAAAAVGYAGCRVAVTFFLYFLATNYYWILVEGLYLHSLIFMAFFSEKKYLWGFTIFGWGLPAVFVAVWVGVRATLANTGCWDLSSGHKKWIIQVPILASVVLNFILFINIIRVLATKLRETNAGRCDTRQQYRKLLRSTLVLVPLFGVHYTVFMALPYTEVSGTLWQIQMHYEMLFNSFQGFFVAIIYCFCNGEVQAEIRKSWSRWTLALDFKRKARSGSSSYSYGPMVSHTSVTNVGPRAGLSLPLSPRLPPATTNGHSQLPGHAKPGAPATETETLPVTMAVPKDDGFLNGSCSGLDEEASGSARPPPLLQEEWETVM
Description: HKRK B7 or EW5 cells (32), subclones of LLC-PKI renal epithelial cells that stably express human or rat PTH-1 receptors (950,000 and 320,000 receptors/cell, respectively), were maintained under 5% CO2 in air in Dulbecco's modified essential medium containing 7% fetal bovine serum (FBS) and 1% penicillin/streptomycin (GIBCO-BRL, Grand Island, N.Y.). HEK-293 and COS-7 cells were cultured similarly, except that 10% FBS was used in the medium. Cells were seeded into 24-well plates two days before assay at a density of 2-2.5×10^5 cells/well (HKRK B7 or EW 5 cells) or 6×10^5 cells/well (in 6-well plates) (HEK-293 cells). […]
Intracellular cAMP accumulation, PLC activation and PTHR binding affinity were measured as previously reported (Bringhurst, F. R., et al., Endocrinology 132(5):2090-2098 (1993); Guo, J., et al., Endocrinology 136(9):3884-3891 (1995)). Intracellular cAMP accumulation was measured in extracts of cells that were exposed to human PTH peptides in the presence of isobutylmethyxanthine (IBMX, 1 mM) at 37° C. for 15 min. After terminating the reactions by aspiration and freezing in liquid nitrogen, cell monolayers were extracted with 50 mM HCl and cAMP was measured using a radioimmunoassay kit (Dupont-New England Nuclear, Boston, Mass.). […]

[2] = target: T2, human PTH-1 receptors (Homo sapiens, UniProt Q03431); assay: Radioligand competition binding with 125I-[Nle8,21,Tyr34]rat PTH-(1-34) in HKRK B7 cells; conditions: read-out: apparent IC50 for binding
T2 construct: expressed in transfected cells
T2 sequence (Q03431 27-593): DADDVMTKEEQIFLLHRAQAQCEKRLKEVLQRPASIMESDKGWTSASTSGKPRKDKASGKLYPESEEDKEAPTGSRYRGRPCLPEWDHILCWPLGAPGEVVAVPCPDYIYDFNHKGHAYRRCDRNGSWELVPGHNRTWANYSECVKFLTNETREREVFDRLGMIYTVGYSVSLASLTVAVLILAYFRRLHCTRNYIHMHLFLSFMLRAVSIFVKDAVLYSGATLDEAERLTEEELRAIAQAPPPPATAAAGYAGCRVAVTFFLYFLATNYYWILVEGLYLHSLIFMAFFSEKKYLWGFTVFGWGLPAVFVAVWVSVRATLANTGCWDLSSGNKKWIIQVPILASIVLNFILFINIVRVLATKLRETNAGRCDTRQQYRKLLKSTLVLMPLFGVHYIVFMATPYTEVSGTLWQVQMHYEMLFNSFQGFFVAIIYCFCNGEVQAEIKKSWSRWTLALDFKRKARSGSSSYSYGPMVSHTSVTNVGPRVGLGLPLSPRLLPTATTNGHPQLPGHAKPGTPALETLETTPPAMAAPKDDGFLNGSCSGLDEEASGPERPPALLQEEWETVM
Description: HKRK B7 or EW5 cells (32), subclones of LLC-PKI renal epithelial cells that stably express human or rat PTH-1 receptors (950,000 and 320,000 receptors/cell, respectively), were maintained under 5% CO2 in air in Dulbecco's modified essential medium containing 7% fetal bovine serum (FBS) and 1% penicillin/streptomycin (GIBCO-BRL, Grand Island, N.Y.). HEK-293 and COS-7 cells were cultured similarly, except that 10% FBS was used in the medium. Cells were seeded into 24-well plates two days before assay at a density of 2-2.5×10^5 cells/well (HKRK B7 or EW 5 cells) or 6×10^5 cells/well (in 6-well plates) (HEK-293 cells). In experiments involving HEK-293 cells, DNA transfections were performed 24 hr after plating and inositol radiolabel was added 24 hr thereafter (see below). COS-7 cell transfections were performed as previously described (Gardella, T. J., et al., Endocrinology 132(5):2024-2030 (1993)) Radioligand competition binding assays were performed at 2-8° C. for 6 hr using ^125I-[Nle^8,21,[…]]rat PTH-(1-34) (100,000 cpm/well) in the presence or absence of non-radioactive hPTH-(1-34) analogs. Cell layers were washed three times before solubilization for determination of cell-associated radioactivity.

[3] = target: T1, rat PTH-1 receptors; assay: PLC activation in EW5 cells; type: cell-based; conditions: compared with human PTH-1 receptor
Description: HKRK B7 or EW5 cells (32), subclones of LLC-PKI renal epithelial cells that stably express human or rat PTH-1 receptors (950,000 and 320,000 receptors/cell, respectively), were maintained under 5% CO2 in air in Dulbecco's modified essential medium containing 7% fetal bovine serum (FBS) and 1% penicillin/streptomycin (GIBCO-BRL, Grand Island, N.Y.). HEK-293 and COS-7 cells were cultured similarly, except that 10% FBS was used in the medium. Cells were seeded into 24-well plates two days before assay at a density of 2-2.5×10^5 cells/well (HKRK B7 or EW 5 cells) or 6×10^5 cells/well (in 6-well plates) (HEK-293 cells). In experiments involving HEK-293 cells, DNA transfections were performed 24 hr after plating and inositol radiolabel was added 24 hr thereafter (see below). COS-7 cell transfections were performed as previously described (Gardella, T. J., et al., Endocrinology 132(5):2024-2030 (1993))
PLC was activated by PTH agonists in the presence of 30 mM LiCl at 37° C. for 30 min after 16 hr of labeling with [^3H]myo-inositol (3 uCi/ml) in serum-free medium containing 0.1% bovine serum albumin. The reactions were stopped by rapid aspiration and addition of cold 5% TCA. Water-soluble radiolabeled inositol trisphosphate (IP3) was isolated after ether extraction by ion-exchange chromatography (Guo, J., et al., Endocrinology 136(9):3884-3891 (1995)). […]

Row | fold impairment of EC50 for AC at the rat PTH-1 receptor relative to hPTH-(1-34) [1] | pIC50 [2] | signaling (AC) via rat PTH-1 receptors, result in words ([1]; compared with human PTH-1 receptor) | signaling (PLC) via rat PTH-1 receptors, result in words [3] | Substance
1 | about 6 fold | – | – | – | GVSEIQLMHNLGKHLNSMRRVEWLRKKL [[Gly^1,Arg^19]hPTH-(1-28)]
2 | – | 6.00 | more severely impaired | more severely impaired | SVSEIQLMHNLGKHLNSMERVEWLRKKL-NH2 [hPTH-(1-28)]
